This note sets out measurements from US8183262B2, “Pyridine derivatives as mGluR2 antagonists” (Hoffmann-La Roche Inc., priority 2007, dated 2012).

Take `Cc1cc(-c2ccc(C(F)(F)F)cc2)cc(-c2nc(-c3ccc(N)nc3)cs2)n1` [Example 230, 5-{2-[6-Methyl-4-(4-trifluoromethyl-phenyl)-pyridin-2-yl]-thiazol-4-yl}-pyridin-2-ylamine]: the melting point (in general, the temperature, or range, at which the solid turns liquid) is 191 °C. The result for `Cc1cc(-c2ccc(C(F)(F)F)cc2)cc(-c2ccnc(-c3cccc(S(=O)(=O)NC(C)(C)C)c3)n2)n1` [Example 262, N-tert-Butyl-3-{4-[6-methyl-4-(4-trifluoromethyl-phenyl)-pyridin-2-yl]-pyrimidin-2-yl}-benzenesulfonamide] reads 218 °C; that for `CS(=O)(=O)c1cccc(-c2cccc(-c3nc(-c4ccc(C(F)(F)F)cc4)cc(C(F)(F)F)n3)c2)c1` [Example 219, 2-(3′-Methanesulfonyl-biphenyl-3-yl)-4-trifluoromethyl-6-(4-trifluoromethyl-phenyl)-pyrimidine], 183.5 °C; that for `Nc1ccc(-c2cccc(-c3nc(-c4ccc(C(F)(F)F)c(F)c4)cc(C(F)(F)F)n3)c2)cn1` [Example 96, 5-{3-[4-(3-Fluoro-4-trifluoromethyl-phenyl)-6-trifluoromethyl-pyrimidin-2-yl]-phenyl}-pyridin-2-ylamine], 212 °C. With `NS(=O)(=O)c1cccc(-c2cc(-c3nc(-c4cccc(C(F)(F)F)c4)cc(C(F)(F)F)n3)ccn2)c1` [Example 449, 3-{4-[4-Trifluoromethyl-6-(3-trifluoromethyl-phenyl)-pyrimidin-2-yl]-pyridin-2-yl}-benzenesulfonamide], the melting point is 244 °C. Compound `CNS(=O)(=O)c1cccc(-c2cc(-c3nc(-c4ccc(C(F)(F)F)cc4)cc(C(F)(F)F)n3)ccn2)c1` [Example 402, N-Methyl-3-{4-[4-trifluoromethyl-6-(4-trifluoromethyl-phenyl)-pyrimidin-2-yl]-pyridin-2-yl}-benzenesulfonamide] had a melting point of 174 °C. In the case of `COc1cc(-c2cc(C)nc(-c3ccnc(-c4ccc(S(N)(=O)=O)s4)c3)c2)ccc1C(F)(F)F` [Example 341, 5-[4-(3-Methoxy-4-trifluoromethyl-phenyl)-6-methyl-[2,4′]bipyridinyl-2′-yl]-thiophene-2-sulfonic acid amide] it was 261 °C (dec.). The result for `NS(=O)(=O)c1cccc(-c2cccc(-c3nc(-c4ccc(Cl)cc4Cl)cc(C(F)(F)F)n3)c2)c1` [Example 410, 3′-[4-(2,4-Dichloro-phenyl)-6-trifluoromethyl-pyrimidin-2-yl]-biphenyl-3-sulfonic acid amide] reads 202 °C; that for `Cc1cc(-c2ccc(C(F)(F)F)c(C)c2)nc(-n2cnc(-c3ccc(N)nc3)c2)n1` [Example 122, 5-{1-[4-Methyl-6-(3-methyl-4-trifluoromethyl-phenyl)-pyrimidin-2-yl]-1H-imidazol-4-yl}-pyridin-2-ylamine], 247.5 °C. `NS(=O)(=O)c1ccc(-c2cn(-c3nc(-c4ccc(Cl)cc4)cc(C(F)(F)F)n3)cn2)s1` [Example 171, 5-{1-[4-(4-Chloro-phenyl)-6-trifluoromethyl-pyrimidin-2-yl]-1H-imidazol-4-yl}-thiophene-2-sulfonic acid amide] returned a melting point of 284 °C. As to `Cc1cc(-c2ccc(C(F)(F)F)cc2)cc(-c2ccnc(-c3ccc(S(=O)(=O)NC(C)(C)C)s3)n2)n1` [Example 303, 5-{4-[6-Methyl-4-(4-trifluoromethyl-phenyl)-pyridin-2-yl]-pyrimidin-2-yl}-thiophene-2-sulfonic acid tert-butylamide], the melting point was 242 °C (dec.). The result for `NS(=O)(=O)c1ccc(-c2cn(-c3nc(-c4ccc(C(F)(F)F)cc4)cc(C(F)(F)F)n3)cn2)s1` [Example 163, 5-{1-[4-Trifluoromethyl-6-(4-trifluoromethyl-phenyl)-pyrimidin-2-yl]-1H-imidazol-4-yl}-thiophene-2-sulfonic acid amide] reads 281 °C; that for `CCOc1cc(-c2cc(C(F)(F)F)nc(-c3cccc(-c4ccc(N)nc4)c3)n2)ccc1C(F)(F)F` [Example 93, 5-{3-[4-(3-Ethoxy-4-trifluoromethyl-phenyl)-6-trifluoromethyl-pyrimidin-2-yl]-phenyl}-pyridin-2-ylamine], 208 °C; that for `Cc1cc(-c2ccc(C(F)(F)F)cc2)nc(-c2ccnc(-c3ccc(S(N)(=O)=O)s3)c2)c1` [Example 323, 5-[4-Methyl-6-(4-trifluoromethyl-phenyl)-[2,4′]bipyridinyl-2′-yl]-thiophene-2-sulfonic acid amide], 228 °C (dec.). The result for `Cc1cc(-c2ccc(C(F)(F)F)cc2)cc(-c2ccnc(-c3ccc(N)nc3)n2)n1` [Example 239, 5-{4-[6-Methyl-4-(4-trifluoromethyl-phenyl)-pyridin-2-yl]-pyrimidin-2-yl}-pyridin-2-ylamine] reads 191 °C; that for `Cc1cc(-c2ccc(C(F)(F)F)cc2)cc(-c2cccc(-c3cccc(S(=O)(=O)NCCO)c3)n2)n1` [Example 359, N-(2-Hydroxy-ethyl)-3-[6′-methyl-4′-(4-trifluoromethyl-phenyl)-[2,2′]bipyridinyl-6-yl]-benzenesulfonamide], 110 °C (dec.). The result for `Cc1cc(-c2ccc(Cl)cc2)nc(-n2cnc(-c3ccc(S(N)(=O)=O)s3)c2)n1` [Example 190, 5-{1-[4-(4-Chloro-phenyl)-6-methyl-pyrimidin-2-yl]-1H-imidazol-4-yl}-thiophene-2-sulfonic acid amide] reads 281 °C; that for `Nc1ccc(-c2cnn(-c3nc(-c4ccc(C(F)(F)F)cc4)cc(C(F)(F)F)n3)c2)cn1` [Example 19, 5-{1-[4-Trifluoromethyl-6-(4-trifluoromethyl-phenyl)-pyrimidin-2-yl]-1H-pyrazol-4-yl}-pyridin-2-ylamine], 206 °C; that for `CC(C)(C)NS(=O)(=O)c1ccc(-c2cc(-c3nc(-c4ccc(C(F)(F)F)cc4)cc(C(F)(F)F)n3)ccn2)s1` [Example 162, 5-{4-[4-Trifluoromethyl-6-(4-trifluoromethyl-phenyl)-pyrimidin-2-yl]-pyridin-2-yl}-thiophene-2-sulfonic acid tert-butylamide], 237 °C.

The compound `Cc1cc(-c2ccc(Cl)cc2)cc(-c2cncc(-c3ccc(N)nc3)c2)n1` [Example 81, 4-(4-Chloro-phenyl)-6-methyl-[2,3′;5′,3″]terpyridin-6″-ylamine] gave a melting point of 188 to 192 °C.

As for `Cc1cc(-c2ccc(C(F)(F)F)cc2)cc(-c2cccc(-c3cccc(S(=O)(=O)N4CCC(Oc5ncccn5)CC4)c3)n2)n1` [Example 435, 6-Methyl-6′-{3-[4-(pyrimidin-2-yloxy)-piperidine-1-sulfonyl]-phenyl}-4-(4-trifluoromethyl-phenyl)-[2,2′]bipyridinyl], the melting point is 134 °C (dec.). The result for `NS(=O)(=O)c1ccc(-c2cn(-c3nc(-c4ccc(Cl)cc4)cc(C(F)(F)F)n3)cn2)cc1` [Example 175, 4-{1-[4-(4-Chloro-phenyl)-6-trifluoromethyl-pyrimidin-2-yl]-1H-imidazol-4-yl}-benzenesulfonamide] reads 324 °C; that for `O=S(=O)(NCC1CC1)c1cccc(-c2cc(-c3nc(-c4ccc(C(F)(F)F)cc4)cc(C(F)(F)F)n3)ccn2)c1` [Example 408, N-Cyclopropylmethyl-3-{4-[4-trifluoromethyl-6-(4-trifluoromethyl-phenyl)-pyrimidin-2-yl]-pyridin-2-yl}-benzenesulfonamide], 133.5 °C. The result for `O=S(=O)(c1cccc(-c2cc(-c3nc(-c4ccc(C(F)(F)F)cc4)cc(C(F)(F)F)n3)ccn2)c1)N(CCO)CCO` [Example 383, N,N-Bis-(2-hydroxy-ethyl)-3-{4-[4-trifluoromethyl-6-(4-trifluoromethyl-phenyl)-pyrimidin-2-yl]-pyridin-2-yl}-benzenesulfonamide] reads 186 °C; that for `Cc1c(-c2ccc(N)nc2)ncn1-c1nc(-c2ccc(C(F)(F)F)cc2)cc(C(F)(F)F)n1` [Example 154, 5-{5-Methyl-1-[4-trifluoromethyl-6-(4-trifluoromethyl-phenyl)-pyrimidin-2-yl]-1H-imidazol-4-yl}-pyridin-2-ylamine], 252 °C. The result for `Nc1ccc(-c2cccc(-c3nc(-c4ccc(C(F)(F)F)cc4)cc(C(F)(F)F)n3)c2)cc1` [Example 117, 3′-[4-Trifluoromethyl-6-(4-trifluoromethyl-phenyl)-pyrimidin-2-yl]-biphenyl-4-ylamine] reads 186 °C; that for `Cc1cc(-c2ccc(C(F)(F)F)c(C)c2)cc(-c2cccc(-c3cccc(S(N)(=O)=O)c3)n2)n1` [Example 440, 3-[6′-Methyl-4′-(3-methyl-4-trifluoromethyl-phenyl)-[2,2′]bipyridinyl-6-yl]-benzenesulfonamide], > 250 °C; that for `NS(=O)(=O)c1ccc(-c2noc(-c3nc(-c4ccc(Cl)cc4)cc(C(F)(F)F)n3)n2)cc1` [Example 17, 4-{5-[4-(4-Chloro-phenyl)-6-trifluoromethyl-pyrimidin-2-yl]-[1,2,4}oxadiazol-3-yl]-benzenesulfonamide], 289.5 °C.

`FC(F)(F)c1ccc(-c2cc(C(F)(F)F)nc(-c3ccnc(-c4cccnc4)c3)n2)cc1` [Example 85, 4-[4-Trifluoromethyl-6-(4-trifluoromethyl-phenyl)-pyrimidin-2-yl]-[2,3′]bipyridinyl] yielded a melting point of 247 °C. The result for `Cc1cc(-c2ccc(Cl)c(C)c2)nc(-c2cccc(-c3cccc(S(N)(=O)=O)c3)c2)n1` [Example 379, 3′-[4-(4-Chloro-3-methyl-phenyl)-6-methyl-pyrimidin-2-yl]-biphenyl-3-sulfonic acid amide] reads 201 °C; that for `Nc1ccc(-c2cn(-c3nc(-c4ccc(C(F)(F)F)c(OCC(F)(F)F)c4)cc(C(F)(F)F)n3)cn2)cn1` [Example 134, 5-(1-{4-[3-(2,2,2-Trifluoro-ethoxy)-4-trifluoromethyl-phenyl]-6-trifluoromethyl-pyrimidin-2-yl}-1H-imidazol-4-yl)-pyridin-2-ylamine], 285 °C.
